Laboratory results as given in patent publication US10266806B2, “Stem cell-derived hepatocytes in co-culture and uses thereof” (Colorado State University Research Foundation, priority 2014, dated 2019).
Structures can show the parent of a compound that is named as a salt. Where two headings read alike, the source gives them in different places.

Legend:
[1] = test system: primary human hepatocytes in MPCCs; settings: (ref 19), cited from earlier work; for TC50 in MPCCs ATP: concentration at which activity decreases by 50% of DMSO-only controls
[2] = total human plasma concentration; cited from earlier work
[3] = test system: iHeps in iMPCCs; settings: for TC50 in MPCCs ATP / TC50 in MPCCs Albumin / TC50 in MPCCs Urea: human, 6 days
[4] = test system: iHeps in iMPCCs; test: Drug toxicity screening in iMPCCs (albumin, ATP, urea; binary decision and TC50)
[5] = negative number: withdrawn from the market; higher positive numbers: greater DILI concern; cited from earlier work
[6] = test system: iMPCCs
[7] = test system: iHeps in iCCs

C=C[C@H]1C[N@@]2CC[C@H]1C[C@H]2[C@H](O)c1ccnc2ccc(OC)cc12 [Quinine]
TC50 in MPCCs Albumin [1]: 251.6 µM
TC50 in MPCCs Urea [1]: 285.2 µM
TC50 in MPCCs ATP [1]: 259.1 µM
Cmax [2]: 9250 nM
TC50 in MPCCs ATP [3]: 182.2 µM
TC50 in MPCCs Albumin [3]: 115.7 µM
TC50 in MPCCs Urea [3]: 127.9 µM

Cc1ccc(N(CC2=NCCN2)c2cccc(O)c2)cc1 [Phentolamine mesylate]
Cmax [2]: 86 nM
Model predictions iMPCC (binary decision) [3]: −

O=P1(N(CCCl)CCCl)NCCCO1 (stereo not drawn) [Cyclophosphamide]
TC50 in MPCCs Albumin [1]: 1449.4 µM
TC50 in MPCCs Urea [1]: 1746.0 µM
TC50 in MPCCs ATP [1]: 6165.0 µM
TC50 in MPCCs Albumin [4]: 18670.7 µM
Cmax [2]: 265000 nM

Cc1c(C)c2c(c(C)c1O)CCC(C)(COc1ccc(CC3SC(=O)NC3=O)cc1)O2 (stereo not drawn) [Troglitazone]
DILI Sev (DILI severity scores from the LTKB of the FDA) [5]: −2
albumin production in iMPCCs [6]: declined significantly
urea production in iMPCCs [6]: declined significantly

O=c1n(CCCN2CCN(c3cccc(Cl)c3)CC2)nc2ccccn12 [Trazodone HCl]
TC50 in MPCCs Albumin [1]: 64.8 µM
TC50 in MPCCs Urea [1]: 121.8 µM
TC50 in MPCCs ATP [1]: 201.7 µM
Cmax [2]: 5060 nM
TC50 in MPCCs ATP [3]: 351.5 µM
TC50 in MPCCs Albumin [3]: 205.5 µM
TC50 in MPCCs Urea [3]: 272.4 µM

NC(=O)c1cnccn1 [Pyrazinamide]
DILI Sev (DILI severity scores from the LTKB of the FDA) [5]: 3
TC50 in MPCCs Albumin [1]: 20420.3 µM
TC50 in MPCCs Urea [1]: 14781.6 µM
TC50 in MPCCs ATP [1]: 19695.5 µM
Model predictions iCC (binary decision) [7]: −
toxicity call in iCCs [7]: non-toxic
Cmax [2]: 407000 nM
toxicity call in iMPCCs / iHeps [3]: toxic
TC50 in MPCCs Albumin [3]: 33457.5 µM

CCCCCCCCCCCCCCCC(=O)OC[C@@H](NC(=O)C(Cl)Cl)[C@H](O)c1ccc([N+](=O)[O-])cc1 [Chloramphenicol palmitate]
Cmax [2]: 20000 nM
Model predictions iMPCC (binary decision) [3]: −

CCN(CC)CCOc1ccc(C(=C(Cl)c2ccccc2)c2ccccc2)cc1 [Clomiphene citrate]
Cmax [2]: 22 nM
Model predictions iMPCC (binary decision) [3]: −

COC(=O)Nc1nc2ccc(C(=O)c3ccccc3)cc2[nH]1 [Mebendazole]
TC50 in MPCCs Albumin [1]: 11.6 µM
TC50 in MPCCs ATP [1]: 11.5 µM
Cmax [2]: 126 nM
TC50 in MPCCs Albumin [3]: 1.9 µM
TC50 in MPCCs Urea [3]: 2.3 µM

CC(=O)Oc1ccccc1C(=O)O [Aspirin]
albumin production in iMPCCs [6]: minimally affected
urea production in iMPCCs [6]: minimally affected
Model predictions iCC (binary decision) [7]: −
Cmax [2]: 5530 nM
Model predictions iMPCC (binary decision) [3]: −

CNCCC=C1c2ccccc2CCc2ccccc21 [Nortriptyline HCl]
DILI Sev (DILI severity scores from the LTKB of the FDA) [5]: 8
Cmax [2]: 122 nM

CC(=O)[C@H]1CC[C@H]2[C@@H]3CCC4=CC(=O)CC[C@]4(C)[C@H]3CC[C@]12C [Progesterone]
Cmax [2]: 193 nM

C#CC1(O)CC[C@H]2[C@@H]3CCC4=CC(=O)CC[C@@H]4[C@H]3CC[C@@]21CC (mixture of isomers) [Norgestrel]
Cmax [2]: 9 nM

CNCCc1ccccn1.Cl.Cl [Betahistine 2HCl]
DILI Sev (DILI severity scores from the LTKB of the FDA) [5]: 6
Cmax [2]: 4 nM
Model predictions iMPCC (binary decision) [3]: −

CCCCC1C(=O)N(c2ccccc2)N(c2ccccc2)C1=O [Phenylbutazone]
TC50 in MPCCs Albumin [1]: 6414.4 µM
TC50 in MPCCs Urea [1]: 2532.0 µM
TC50 in MPCCs ATP [1]: 7566.7 µM
Cmax [2]: 487000 nM

CN(CCOc1ccc(CC2SC(=O)NC2=O)cc1)c1ccccn1 (stereo not drawn) [Rosiglitazone]
Cmax [2]: 1120 nM

Cc1ccc(C(=O)c2cc(O)c(O)c([N+](=O)[O-])c2)cc1 [tolcapone]
albumin production in iMPCCs [6]: declined significantly
urea production in iMPCCs [6]: declined significantly
albumin secretions in iMPCCs, toxicity over time and dose [3]: time- and dose-dependent toxicities

C[C@@H]1C[C@H]2[C@@H]3CCC4=CC(=O)C=C[C@]4(C)[C@@]3(F)[C@@H](O)C[C@]2(C)[C@@]1(O)C(=O)CO [Dexamethasone]
DILI Sev (DILI severity scores from the LTKB of the FDA) [5]: 3
Model predictions iCC (binary decision) [7]: −
Cmax [2]: 224 nM
Model predictions iMPCC (binary decision) [3]: −

CCN(CC)C(=O)/C(C#N)=C/c1cc(O)c(O)c([N+](=O)[O-])c1 [entacapone]
albumin secretions in iMPCCs, toxicity over time and dose [3]: time- and dose-dependent toxicities

O=C(O)Cc1ccccc1Nc1c(Cl)cccc1Cl [Diclofenac]
TC50 in MPCCs Albumin [1]: 141.9 µM
TC50 in MPCCs Urea [1]: 206.2 µM
TC50 in MPCCs ATP [1]: 638.4 µM

CC(=O)CC(c1ccccc1)c1c(O)c2ccccc2oc1=O (stereo not drawn) [Warfarin]
Cmax [2]: 4890 nM

CC/C(=C(\c1ccccc1)c1ccc(OCCN(C)C)cc1)c1ccccc1 [Tamoxifen]
TC50 in MPCCs Albumin [1]: 3.2 µM
TC50 in MPCCs Urea [1]: 3.9 µM
TC50 in MPCCs ATP [1]: 15.8 µM
Model predictions iCC (binary decision) [7]: −
Cmax [2]: 162 nM
TC50 in MPCCs Albumin [3]: 4.2 µM
TC50 in MPCCs Urea [3]: 11.7 µM
